Source: patent publication US6469010B1, “Medicament for the alleviation or treatment of symptom derived from the ischemic disease and compound useful thereof” (Suntory Limited, priority 1995, dated 2002)

Columns and labels:
DBA/2N mice = assay: Audiogenic seizure suppressing action; format: in vivo; conditions: Mus musculus, ip, 20 min; compound 10 mg/kg, i.p.; audio stimulus after 20 minutes; suppression of average seizure score; read-out: Antiseizure action (suppression rate %)
Method: Audiogenic Seizure Suppressing Action
The audiogenic seizure suppressing action of the compounds was evaluated by the method of Sarro et al. [G. B. De Sarro et al.; Br. J. Pharmacol., 93, 247 (1988)]. That is, DBA/2N mice (male, 3 weeks) were administered with the compound dissolved in 10% 2-hydroxypropyl-β-cyclodextrin intraperitoneally. After 20 minutes, a supersonic washer was used to apply audio stimulus of at least 90 dB for one minute. The wild running (WR), clonic seizures (clonus), tonic seizures (tonus), and respiratory arrest (RA) were evaluated. The seizure suppressing action was evaluated from the rate or suppression of the average value of the seizure score found from 0=no response, 1=WR, 2=clonus, 3=tonus, and 4=RA.

Na+ channel = assay: Veratridine-induced sodium channel activity inhibiting action (membrane potential of synaptosomes, Rhodamine 6G); format: biochemical, Wistar rats; conditions: 0.1 μM of compound; rat brain synaptosomes, veratridine-induced depolarization
Method: Veratridine-induced Sodium Channel Activity Inhibiting Action
The membrane potential of the synaptosomes prepared from the brain membrane of Wistar rats (male, 10 to 12 weeks old) was measured by the method of Aiuchi et al. [T. Aiuchi et al: Biochimi. Biophys. Acta.

SMILES | inhibition in vivo at 10 mg/kg (DBA/2N mice) | Antiveratridine action (inhibiting rate %) (Na+ channel)
Fc1ccc(/C=C/CN2CCC(c3ccc(Oc4ccccc4)cc3)CC2)cc1 [Compound 25, (E)-1-[3-(4-fluorophenyl)-2-propenyl]-4-(4-phenoxyphenyl)piperidine] | 72% | –
Fc1ccc(Cc2ccc(N3CCN(CCCCOc4ccc(F)cc4)CC3)cc2)cc1 [Compound 57, 4-[4-(4-fluorophenyl)-oxybutyl]-1-[4-(4-fluorophenyl)methylphenyl]pinerazine] | – | 25%
CC(C(=O)c1ccccc1)N1CCC(c2ccc(Oc3ccccc3)cc2)CC1 (centres unmarked) [Compound 69, 1-(1-benzoylethyl)-4-(4-phenoxyphenyl)piperidine] | 64.7% | 11.2%
O=C(CCCN1CCN(c2ccc(Cc3ccc(F)cc3)cc2)CC1)c1ccc(F)cc1 [Compound 58, 1-[4-(4-fluorophenyl)methylphenyl]-4-[4-((4-fluorophenyl)-4-oxo)butyl]-piperazine] | 66% | 33.9%
COc1ccc(CN2CCN(c3ccc(Oc4ccccc4)cc3)CC2)c(OC)c1OC [Compound 46, 1-(4-phenoxyphenyl)-4-[(2,3,4-trimethoxyphenyl)methyl]piperazine] | 27.9% | 11.7%
O=C(CN1CCC(c2ccc(Cc3ccc(F)cc3)cc2)CC1)c1ccccc1 [Compound 63, 4-[4-(4-fluorophenyl)methylphenyl]-1-(2-phenyl-2-oxo)ethylpiperidine] | 76% | 31.1%
ON=C(CN1CCC(c2ccc(Oc3ccccc3)cc2)CC1)c1ccccc1 [Compound 74, 4-(4-phenoxyphenyl)-1-(2-phenyl-2-hydroxyimino)ethylpiperidine] | 44.4% | 14.6%
COc1ccc(Cc2ccc(C3CCN(CC(=O)c4ccccc4)CC3)cc2)cc1 [Compound 70, 4-[4-(4-methoxyphenyl)methylphenyl]-1-(2-phenyl-2-oxo)ethylpiperidine] | 73.9% | –
O=C(CN1CCC(c2ccc(Oc3ccccc3)cc2)CC1)c1ccccc1 [Compound 64, 4-(4-phenoxyphenyl)-1-(2-phenyl-2-oxo)ethylpiperidine] | 94% | 34.5%
O=C1c2ccccc2CC1N1CCC(c2ccc(Oc3ccccc3)cc2)CC1 (centres unmarked) [Compound 71, 1-(1-oxoindan-2-yl)-4-(4-phenoxy)phenylpiperidine] | 32% | –
COc1ccc(C(=O)CN2CCC(c3ccc(Oc4ccccc4)cc3)CC2)cc1 [Compound 66, 1-[2-(4-methoxyphenyl)-2-oxo]ethyl-4-(4-phenoxyphenyl)piperidine] | 39.2% | 19.6%
O=C(CN1CCC(c2ccc(Oc3ccccc3)cc2)CC1)c1ccc(F)cc1 [Compound 67, 1-[2-(4-fluorophenyl)-2-oxo]ethyl-4-(4-phenoxyphenyl)piperidine] | 37% | 15%
Fc1ccc(Cc2ccc(C3=CCN(C/C=C/c4ccccc4)CC3)cc2)cc1 [Compound 31, (E)-4-[4-(4-fluorophenyl)-methylphenyl]-1-(3-phenyl-2-propenyl)-1,2,3,6-tetrahydropyridine] | 48% | –
COc1cc(/C=C/CN2CC=C(c3ccc(Oc4ccccc4)cc3)CC2)ccc1O [Compound 24, (E)-1-[3-(4-hydroxy-3-methoxyphenyl)-2-propenyl]-4-(4-phenoxyphenyl)-1,2,3,6-tetrahydropyridine] | 49.1% | –
C(=C\c1ccccc1)/CN1CCN(c2ccccc2Cc2ccccc2)CC1 [Compound 51, (E)-1-(2-benzylphenyl)-4-(3-phenyl-2-propenyl)piperazine] | 71.4% | –
Fc1ccc(OCCN2CCC(c3ccc(Oc4ccccc4)cc3)CC2)cc1 [Compound 27, 1-[2-(4-fluorophenyl)oxyethyl]-4-(4-phenoxyphenyl)piperidine] | 34% | –
Fc1ccc(OCCCCN2CCN(c3ccc(Oc4ccccc4)cc3)CC2)cc1 [Compound 41, 4-[4-(4-fluorophenyl)-oxybutyl]-1-(4-phenoxyphenyl)piperazine] | 42.7% | 20.8%

SMILES | inhibition in vivo at 10 mg/kg (DBA/2N mice) | Antiveratridine action (inhibiting rate %) (Na+ channel)
OC(COc1ccccc1)CN1CCC(c2ccc(Cc3ccc(F)cc3)cc2)CC1 (centres unmarked) [Compound 81, 4-[4-(4-fluorophenyl)methylphenyl]-1-(2-hydroxy-3-phenoxy)propylpiperidine] | 61% | 24.1%
COc1ccc(CN2CCC(c3ccc(Oc4ccccc4)cc3)CC2)c(OC)c1OC [Compound 29, 4-(4-phenoxyphenyl)-1-[(2,3,4-trimethoxyphenyl)methyl]piperidine] | 66.2% | 9.9%
COc1cc(/C=C/CN2CCC(c3ccc(Oc4ccccc4)cc3)CC2)ccc1O [Compound 19, (E)-1-[3-(4-hydroxy-3-methoxyphenyl)-2-propenyl]-4-(4-phenoxyphenyl)piperidine] | 53.6% | 26.1%
Fc1ccc(OCCCCN2CCC(c3ccc(Oc4ccccc4)cc3)CC2)cc1 [Compound 28, 1-[4-(4-fluorophenyl)-oxybutyl]-4-(4-phenoxyphenyl)piperidine] | 56.9% | 38%
OC(CN1CCC(c2ccc(Oc3ccccc3)cc2)CC1)c1ccccc1 (centres unmarked) [Compound 77, 1-(2-hydroxy-2-phenyl)-ethyl-4-(4-phenoxyphenyl)piperidine] | 85.7% | 31.1%
O=C(CN1CCN(c2ccc(Cc3ccc(F)cc3)cc2)CC1)c1ccccc1 [Compound 82, 1-[4-(4-fluorophenyl)methylphenyl]-4-(2-phenyl-2-oxo)ethylpiperazine] | 71.9% | 16.9%
C(=C\c1ccccc1)/CN1CCN(c2ccccc2Oc2ccccc2)CC1 [Compound 42, (E)-1-(2-phenoxyphenyl)-4-(3-phenyl-2-propenyl)piperazine] | 60% | –
Fc1ccc(Cc2ccc(C3CCN(CC4(c5ccccc5)CC4)CC3)cc2)cc1 [Compound 62, 4-[4-(4-fluorophenyl)-methylphenyl]-1-(1-phenyl-1-cyclopropane)methyl-piperidine] | 44% | 23.9%
COc1ccc(CN2CCN(c3ccc(Cc4ccc(F)cc4)cc3)CC2)c(OC)c1OC [Compound 56, 1-[4-(4-fluorophenyl)-methylphenyl]-4-[(2,3,4-trimethoxyphenyl)methyl]piperazine] | 50% | –
Fc1ccc(Cc2ccccc2C2=CCN(C/C=C/c3ccccc3)CC2)cc1 [Compound 34, (E)-4-[2-(4-fluorophenyl)methylphenyl]-1-(3-phenyl-2-propenyl)-1,2,3,6-tetrahydropyridine] | 34% | –
c1ccc(Cc2ccccc2N2CCN(CC3CC3c3ccccc3)CC2)cc1 (stereo not drawn) [Compound 52, (E)-1-(2-benzylphenyl)-4-[trans-(2-phenyl)cyclopropylmethyl]piperazine] | 20% | –
c1ccc(CCCN2CCC(c3ccc(Oc4ccccc4)cc3)CC2)cc1 [Compound 22, 4-(4-phenoxyphenyl)-1-(3-phenylpropyl)piperidine] | 85.7% | –
C1=C(c2ccc(Oc3ccccc3)cc2)CCN(C/C=C/c2ccccc2)C1 [Compound 18, (E)-4-(4-phenoxyphenyl)-1-(3-phenyl-2-propenyl)-1,2,3,6-tetrahydropyridine] | 27.9% | 16%
O=C(CN1CCC(c2ccc(Oc3ccccc3)cc2)CC1)c1ccc(Cl)cc1 [Compound 68, 1-[2-(4-chlorophenyl)-2-oxo]ethyl-4-(4-phenoxyphenyl]piperidine] | – | 38.9%
OC(CN1CCC(c2ccc(Oc3ccccc3)cc2)CC1)c1ccc(Cl)cc1 (centres unmarked) [Compound 78, 1-[2-(4-chlorophenyl)-2-hydroxy]ethyl-4-(4-phenoxyphenyl)piperidine] | 66% | 44.4%
COc1ccc(/C=C/CN2CCN(c3ccc(Cc4ccc(F)cc4)cc3)CC2)c(OC)c1OC [Compound 48, (E)-1-[4-(4-fluorophenyl)-methylphenyl]-1-[3-(2,3,4-trimethoxyphenyl)-2-propenyl]-piperazine] | 53.6% | 20.5%
Fc1ccc(Cc2ccc(N3CCN(CC4CC4c4ccccc4)CC3)cc2)cc1 (stereo not drawn) [Compound 55, (E)-1-[4-(4-fluorophenyl)-methylphenyl]-4-[trans-(2-phenyl)cyclopropylmethyl]-piperazine] | 62% | –
